The supplement of paper PMC8671470

tested on: KCL-22; assay: cell viability (% survival relative to DMSO control, bortezomib = 0%); higher = less cytotoxic; details: 10 nM; 72 h
Summary of the method: (§1)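 Fifteen myeloid leukaemia cell lines were exposed to compounds at 1, 10, 100, 1000 or 10000 nM in 384-well plates for 72 h at 37 °C and 5% CO2. Viability was read by CellTiter-Glo luminescence and normalised, with vehicle as 100% and a 10 µM positive control as 0%. Values are percent survival averaged over duplicates.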

Structure (SMILES)	cell viability [%]
Cc1nc(-c2ccc(OCC(C)C)c(C#N)c2)sc1C(=O)O [Febuxostat]	103

same assay, conditions: 100 nM; 72 h

Structure (SMILES)	cell viability [%]
CN(C)CCNC(=O)c1cccn2c(=O)c3cc4ccccc4cc3nc12 [Bmh-21]	98.7
C=C1C(=O)O[C@H](CCCCCCCC)[C@H]1C(=O)O [C75]	108
O=C(Cc1cccc(OC(F)(F)F)c1)Nc1ccc(CCCCc2nnc(NC(=O)Cc3ccccn3)s2)nn1 [CB-839]	79.5
O=NN(CCCl)C(=O)NCCCl [Carmustine]	104
O[C@H]1[C@H](O)[C@@H](O)CN2CC[C@H](O)[C@H]12 [Castanospermine]	112
O=C(/C=C/c1cccnc1)NCCCCC1CCN(C(=O)c2ccccc2)CC1 [Daporinad]	1.38
N=C(N)c1ccc(N=NNc2ccc(C(=N)N)cc2)cc1 [Diminazene]	114
OCCN(CCO)c1nc(N2CCCCC2)c2nc(N(CCO)CCO)nc(N3CCCCC3)c2n1 [Dipyridamole]	98.9
Cc1cc(O)c2c(c1)C(=O)c1cc(O)cc(O)c1C2=O [Emodin]	96.6
N#Cc1ccc(C2CCCc3cncn32)cc1 (centres undefined) [Fadrozole]	88.6
Cc1nc(-c2ccc(OCC(C)C)c(C#N)c2)sc1C(=O)O [Febuxostat]	98

same assay, conditions: 1000 nM; 72 h

Structure (SMILES)	cell viability [%]
CN(C)CCNC(=O)c1cccn2c(=O)c3cc4ccccc4cc3nc12 [Bmh-21]	0.317
C=C1C(=O)O[C@H](CCCCCCCC)[C@H]1C(=O)O [C75]	110
O=C(Cc1cccc(OC(F)(F)F)c1)Nc1ccc(CCCCc2nnc(NC(=O)Cc3ccccn3)s2)nn1 [CB-839]	55.4
O=NN(CCCl)C(=O)NCCCl [Carmustine]	88.8
O[C@H]1[C@H](O)[C@@H](O)CN2CC[C@H](O)[C@H]12 [Castanospermine]	125
O=C(/C=C/c1cccnc1)NCCCCC1CCN(C(=O)c2ccccc2)CC1 [Daporinad]	1.35
N=C(N)c1ccc(N=NNc2ccc(C(=N)N)cc2)cc1 [Diminazene]	84.4
OCCN(CCO)c1nc(N2CCCCC2)c2nc(N(CCO)CCO)nc(N3CCCCC3)c2n1 [Dipyridamole]	106
Cc1cc(O)c2c(c1)C(=O)c1cc(O)cc(O)c1C2=O [Emodin]	98.5
N#Cc1ccc(C2CCCc3cncn32)cc1 (centres undefined) [Fadrozole]	82.7
Cc1nc(-c2ccc(OCC(C)C)c(C#N)c2)sc1C(=O)O [Febuxostat]	104

same assay, conditions: 10000 nM; 72 h

Structure (SMILES)	cell viability [%]
CN(C)CCNC(=O)c1cccn2c(=O)c3cc4ccccc4cc3nc12 [Bmh-21]	0.85
C=C1C(=O)O[C@H](CCCCCCCC)[C@H]1C(=O)O [C75]	134
O=C(Cc1cccc(OC(F)(F)F)c1)Nc1ccc(CCCCc2nnc(NC(=O)Cc3ccccn3)s2)nn1 [CB-839]	43.8
O=NN(CCCl)C(=O)NCCCl [Carmustine]	97.4
O[C@H]1[C@H](O)[C@@H](O)CN2CC[C@H](O)[C@H]12 [Castanospermine]	94.9
O=C(/C=C/c1cccnc1)NCCCCC1CCN(C(=O)c2ccccc2)CC1 [Daporinad]	1.59
N=C(N)c1ccc(N=NNc2ccc(C(=N)N)cc2)cc1 [Diminazene]	72.7
OCCN(CCO)c1nc(N2CCCCC2)c2nc(N(CCO)CCO)nc(N3CCCCC3)c2n1 [Dipyridamole]	65
Cc1cc(O)c2c(c1)C(=O)c1cc(O)cc(O)c1C2=O [Emodin]	96
N#Cc1ccc(C2CCCc3cncn32)cc1 (centres undefined) [Fadrozole]	103
Cc1nc(-c2ccc(OCC(C)C)c(C#N)c2)sc1C(=O)O [Febuxostat]	80.1

tested on: K-562; assay: as above; details: 1 nM; 72 h
Summary of the method: as §1

Structure (SMILES)	cell viability [%]
CN(C)CCNC(=O)c1cccn2c(=O)c3cc4ccccc4cc3nc12 [Bmh-21]	108
C=C1C(=O)O[C@H](CCCCCCCC)[C@H]1C(=O)O [C75]	107
O=C(Cc1cccc(OC(F)(F)F)c1)Nc1ccc(CCCCc2nnc(NC(=O)Cc3ccccn3)s2)nn1 [CB-839]	145
O=NN(CCCl)C(=O)NCCCl [Carmustine]	95.1
O[C@H]1[C@H](O)[C@@H](O)CN2CC[C@H](O)[C@H]12 [Castanospermine]	95.1
O=C(/C=C/c1cccnc1)NCCCCC1CCN(C(=O)c2ccccc2)CC1 [Daporinad]	86.5
N=C(N)c1ccc(N=NNc2ccc(C(=N)N)cc2)cc1 [Diminazene]	102
OCCN(CCO)c1nc(N2CCCCC2)c2nc(N(CCO)CCO)nc(N3CCCCC3)c2n1 [Dipyridamole]	108
Cc1cc(O)c2c(c1)C(=O)c1cc(O)cc(O)c1C2=O [Emodin]	109
N#Cc1ccc(C2CCCc3cncn32)cc1 (centres undefined) [Fadrozole]	95.8
Cc1nc(-c2ccc(OCC(C)C)c(C#N)c2)sc1C(=O)O [Febuxostat]	100

same assay, conditions: 10 nM; 72 h

Structure (SMILES)	cell viability [%]
CN(C)CCNC(=O)c1cccn2c(=O)c3cc4ccccc4cc3nc12 [Bmh-21]	84.5
C=C1C(=O)O[C@H](CCCCCCCC)[C@H]1C(=O)O [C75]	98.3
O=C(Cc1cccc(OC(F)(F)F)c1)Nc1ccc(CCCCc2nnc(NC(=O)Cc3ccccn3)s2)nn1 [CB-839]	105
O=NN(CCCl)C(=O)NCCCl [Carmustine]	123
O[C@H]1[C@H](O)[C@@H](O)CN2CC[C@H](O)[C@H]12 [Castanospermine]	107
O=C(/C=C/c1cccnc1)NCCCCC1CCN(C(=O)c2ccccc2)CC1 [Daporinad]	20.4
N=C(N)c1ccc(N=NNc2ccc(C(=N)N)cc2)cc1 [Diminazene]	99.3
OCCN(CCO)c1nc(N2CCCCC2)c2nc(N(CCO)CCO)nc(N3CCCCC3)c2n1 [Dipyridamole]	89.5
Cc1cc(O)c2c(c1)C(=O)c1cc(O)cc(O)c1C2=O [Emodin]	94.2
N#Cc1ccc(C2CCCc3cncn32)cc1 (centres undefined) [Fadrozole]	97.9
Cc1nc(-c2ccc(OCC(C)C)c(C#N)c2)sc1C(=O)O [Febuxostat]	91.3

same assay, conditions: 100 nM; 72 h

Structure (SMILES)	cell viability [%]
CN(C)CCNC(=O)c1cccn2c(=O)c3cc4ccccc4cc3nc12 [Bmh-21]	94.1
C=C1C(=O)O[C@H](CCCCCCCC)[C@H]1C(=O)O [C75]	101
O=C(Cc1cccc(OC(F)(F)F)c1)Nc1ccc(CCCCc2nnc(NC(=O)Cc3ccccn3)s2)nn1 [CB-839]	85.3
O=NN(CCCl)C(=O)NCCCl [Carmustine]	75.8
O[C@H]1[C@H](O)[C@@H](O)CN2CC[C@H](O)[C@H]12 [Castanospermine]	96.5
O=C(/C=C/c1cccnc1)NCCCCC1CCN(C(=O)c2ccccc2)CC1 [Daporinad]	1.83
N=C(N)c1ccc(N=NNc2ccc(C(=N)N)cc2)cc1 [Diminazene]	119
OCCN(CCO)c1nc(N2CCCCC2)c2nc(N(CCO)CCO)nc(N3CCCCC3)c2n1 [Dipyridamole]	105
Cc1cc(O)c2c(c1)C(=O)c1cc(O)cc(O)c1C2=O [Emodin]	102
N#Cc1ccc(C2CCCc3cncn32)cc1 (centres undefined) [Fadrozole]	95.8
Cc1nc(-c2ccc(OCC(C)C)c(C#N)c2)sc1C(=O)O [Febuxostat]	84.2

same assay, conditions: 1000 nM; 72 h

Structure (SMILES)	cell viability [%]
CN(C)CCNC(=O)c1cccn2c(=O)c3cc4ccccc4cc3nc12 [Bmh-21]	92.9
C=C1C(=O)O[C@H](CCCCCCCC)[C@H]1C(=O)O [C75]	108
O=C(Cc1cccc(OC(F)(F)F)c1)Nc1ccc(CCCCc2nnc(NC(=O)Cc3ccccn3)s2)nn1 [CB-839]	86
O=NN(CCCl)C(=O)NCCCl [Carmustine]	111
O[C@H]1[C@H](O)[C@@H](O)CN2CC[C@H](O)[C@H]12 [Castanospermine]	92.2
O=C(/C=C/c1cccnc1)NCCCCC1CCN(C(=O)c2ccccc2)CC1 [Daporinad]	0.861
N=C(N)c1ccc(N=NNc2ccc(C(=N)N)cc2)cc1 [Diminazene]	94.5
OCCN(CCO)c1nc(N2CCCCC2)c2nc(N(CCO)CCO)nc(N3CCCCC3)c2n1 [Dipyridamole]	85.6
Cc1cc(O)c2c(c1)C(=O)c1cc(O)cc(O)c1C2=O [Emodin]	102
N#Cc1ccc(C2CCCc3cncn32)cc1 (centres undefined) [Fadrozole]	101
Cc1nc(-c2ccc(OCC(C)C)c(C#N)c2)sc1C(=O)O [Febuxostat]	113

same assay, conditions: 10000 nM; 72 h

Structure (SMILES)	cell viability [%]
CN(C)CCNC(=O)c1cccn2c(=O)c3cc4ccccc4cc3nc12 [Bmh-21]	44.3
C=C1C(=O)O[C@H](CCCCCCCC)[C@H]1C(=O)O [C75]	111
O=C(Cc1cccc(OC(F)(F)F)c1)Nc1ccc(CCCCc2nnc(NC(=O)Cc3ccccn3)s2)nn1 [CB-839]	77.7
O=NN(CCCl)C(=O)NCCCl [Carmustine]	101
O[C@H]1[C@H](O)[C@@H](O)CN2CC[C@H](O)[C@H]12 [Castanospermine]	106
O=C(/C=C/c1cccnc1)NCCCCC1CCN(C(=O)c2ccccc2)CC1 [Daporinad]	1.37
N=C(N)c1ccc(N=NNc2ccc(C(=N)N)cc2)cc1 [Diminazene]	96.7
OCCN(CCO)c1nc(N2CCCCC2)c2nc(N(CCO)CCO)nc(N3CCCCC3)c2n1 [Dipyridamole]	67
Cc1cc(O)c2c(c1)C(=O)c1cc(O)cc(O)c1C2=O [Emodin]	112
N#Cc1ccc(C2CCCc3cncn32)cc1 (centres undefined) [Fadrozole]	109
Cc1nc(-c2ccc(OCC(C)C)c(C#N)c2)sc1C(=O)O [Febuxostat]	87.7

tested on: KU-812; assay: as above; details: 1 nM; 72 h
Summary of the method: as §1

Structure (SMILES)	cell viability [%]
CN(C)CCNC(=O)c1cccn2c(=O)c3cc4ccccc4cc3nc12 [Bmh-21]	98.1
C=C1C(=O)O[C@H](CCCCCCCC)[C@H]1C(=O)O [C75]	95
O=C(Cc1cccc(OC(F)(F)F)c1)Nc1ccc(CCCCc2nnc(NC(=O)Cc3ccccn3)s2)nn1 [CB-839]	101
O=NN(CCCl)C(=O)NCCCl [Carmustine]	99.4
O[C@H]1[C@H](O)[C@@H](O)CN2CC[C@H](O)[C@H]12 [Castanospermine]	96.7
O=C(/C=C/c1cccnc1)NCCCCC1CCN(C(=O)c2ccccc2)CC1 [Daporinad]	71.9
N=C(N)c1ccc(N=NNc2ccc(C(=N)N)cc2)cc1 [Diminazene]	89.2
OCCN(CCO)c1nc(N2CCCCC2)c2nc(N(CCO)CCO)nc(N3CCCCC3)c2n1 [Dipyridamole]	87.9
Cc1cc(O)c2c(c1)C(=O)c1cc(O)cc(O)c1C2=O [Emodin]	95.1
N#Cc1ccc(C2CCCc3cncn32)cc1 (centres undefined) [Fadrozole]	95.8
Cc1nc(-c2ccc(OCC(C)C)c(C#N)c2)sc1C(=O)O [Febuxostat]	101

same assay, conditions: 10 nM; 72 h

Structure (SMILES)	cell viability [%]
CN(C)CCNC(=O)c1cccn2c(=O)c3cc4ccccc4cc3nc12 [Bmh-21]	105
C=C1C(=O)O[C@H](CCCCCCCC)[C@H]1C(=O)O [C75]	97.6
O=C(Cc1cccc(OC(F)(F)F)c1)Nc1ccc(CCCCc2nnc(NC(=O)Cc3ccccn3)s2)nn1 [CB-839]	81.8
O=NN(CCCl)C(=O)NCCCl [Carmustine]	118
O[C@H]1[C@H](O)[C@@H](O)CN2CC[C@H](O)[C@H]12 [Castanospermine]	93.5
O=C(/C=C/c1cccnc1)NCCCCC1CCN(C(=O)c2ccccc2)CC1 [Daporinad]	14.8
N=C(N)c1ccc(N=NNc2ccc(C(=N)N)cc2)cc1 [Diminazene]	100
OCCN(CCO)c1nc(N2CCCCC2)c2nc(N(CCO)CCO)nc(N3CCCCC3)c2n1 [Dipyridamole]	98.7
Cc1cc(O)c2c(c1)C(=O)c1cc(O)cc(O)c1C2=O [Emodin]	100
N#Cc1ccc(C2CCCc3cncn32)cc1 (centres undefined) [Fadrozole]	87.3
Cc1nc(-c2ccc(OCC(C)C)c(C#N)c2)sc1C(=O)O [Febuxostat]	97.3

same assay, conditions: 100 nM; 72 h

Structure (SMILES)	cell viability [%]
CN(C)CCNC(=O)c1cccn2c(=O)c3cc4ccccc4cc3nc12 [Bmh-21]	108
C=C1C(=O)O[C@H](CCCCCCCC)[C@H]1C(=O)O [C75]	105
O=C(Cc1cccc(OC(F)(F)F)c1)Nc1ccc(CCCCc2nnc(NC(=O)Cc3ccccn3)s2)nn1 [CB-839]	72.2
O=NN(CCCl)C(=O)NCCCl [Carmustine]	114
O[C@H]1[C@H](O)[C@@H](O)CN2CC[C@H](O)[C@H]12 [Castanospermine]	105
O=C(/C=C/c1cccnc1)NCCCCC1CCN(C(=O)c2ccccc2)CC1 [Daporinad]	5.16
N=C(N)c1ccc(N=NNc2ccc(C(=N)N)cc2)cc1 [Diminazene]	95.5
OCCN(CCO)c1nc(N2CCCCC2)c2nc(N(CCO)CCO)nc(N3CCCCC3)c2n1 [Dipyridamole]	90.7
Cc1cc(O)c2c(c1)C(=O)c1cc(O)cc(O)c1C2=O [Emodin]	104
N#Cc1ccc(C2CCCc3cncn32)cc1 (centres undefined) [Fadrozole]	92.2
Cc1nc(-c2ccc(OCC(C)C)c(C#N)c2)sc1C(=O)O [Febuxostat]	94

same assay, conditions: 1000 nM; 72 h

Structure (SMILES)	cell viability [%]
CN(C)CCNC(=O)c1cccn2c(=O)c3cc4ccccc4cc3nc12 [Bmh-21]	15.5
C=C1C(=O)O[C@H](CCCCCCCC)[C@H]1C(=O)O [C75]	102
O=C(Cc1cccc(OC(F)(F)F)c1)Nc1ccc(CCCCc2nnc(NC(=O)Cc3ccccn3)s2)nn1 [CB-839]	67.2
O=NN(CCCl)C(=O)NCCCl [Carmustine]	98.5
O[C@H]1[C@H](O)[C@@H](O)CN2CC[C@H](O)[C@H]12 [Castanospermine]	100
O=C(/C=C/c1cccnc1)NCCCCC1CCN(C(=O)c2ccccc2)CC1 [Daporinad]	5.8
N=C(N)c1ccc(N=NNc2ccc(C(=N)N)cc2)cc1 [Diminazene]	101
